Measured values as given in patent US5686486A, “4-hydroxy-benzopyran-2-ones and 4-hydroxy-cycloalkyl[b]pyran-2-ones useful to treat retroviral infections” (priority 1995, dated 1997).
Structures can show the parent of a compound that is named as a salt. Where two headings read alike, the source gives them in different places.

Molecular target: HIV-1 protease (Human immunodeficiency virus type 1 group M subtype B, UniProt P04585)
Assay: biochemical
Details: for inhibition at 1 µM: read-out: HIV-1 Protease % Inhib, dose 1.000 uM; for inhibition at 100 µM: read-out: HIV-1 Protease % Inhib, dose 100.000 uM; for inhibition at 0.123 µM: read-out: HIV-1 Protease % Inhib, dose 0.123 uM; for inhibition at 0.37 µM: read-out: HIV-1 Protease % Inhib, dose 0.370 uM; for IC50: HIV-1 Protease IC50
Method in brief: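 Percent inhibition derived from fluorescent cleavage product separated by filtration after streptavidin-bead capture of intact biotin/FITC substrate. Reaction: enzyme (10 μl, 0.1 μM stock) with substrate (20 μl, 0.2 μM stock) and compound, 1 h at room temperature in dark, pH 5.5 acetate buffer with 1.0 M NaCl and 0.05% NP-40.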

[1] = read-out: HIV-1 Protease % Inhib, dose 10.000 uM
[2] = read-out: HIV-1 Protease % Inhib, dose 1.100 uM
[3] = read-out: HIV-1 Protease % Inhib, dose 3.300 uM
[4] = read-out: HIV-1 Protease % Inhib, dose 30.000 uM
[5] = dose 1.100 uM, read-out: HIV-1 Protease % Inhib
[6] = dose 3.300 uM, read-out: HIV-1 Protease % Inhib
[7] = dose 10.000 uM, read-out: HIV-1 Protease % Inhib
[8] = dose 30.000 uM, read-out: HIV-1 Protease % Inhib

| Compound | inhibition at 1 µM | inhibition at 10 µM [1] | inhibition at 100 µM | inhibition at 3.3 µM [6] | inhibition at 10 µM [7] | inhibition at 30 µM [8] | also measured |
| --- | --- | --- | --- | --- | --- | --- | --- |
| CCC(c1cccc(NC(=O)CC(C)(C)N)c1)c1c(O)c2ccccc2oc1=O (stereo not drawn) [Example 48, Coumarin, 3-[1-[3-[(3-amino-3-methyl-1-oxobutyl)amino]phenyl]propyl]-4-hydroxy-, trifluoroacetate (salt)] | < 10% | < 10% | 43.3% |  |  |  |  |
| O=c1oc2c(c(O)c1C(c1cccc(NS(=O)(=O)c3ccc(I)cc3)c1)C1CC1)CCCCCC2 (stereo not drawn) [Example 300, N-[3-[Cyclopropyl(5,6,7,8,9,10-hexahydro-4-hydroxy-2-oxo-2H-cycloocta[b]pyran-3-yl)methyl]phenyl]-4-iodo-benzenesulfonamide] |  | 108% |  |  |  |  | inhibition at 0.123 µM: 68.8%; inhibition at 0.37 µM: 92.2%; inhibition at 1.1 µM [2]: 101%; inhibition at 3.3 µM [3]: 102%; inhibition at 30 µM [4]: 108% |
| CCNC(=S)Nc1cccc(C(c2c(O)c3c(oc2=O)CCCCCC3)C2CC2)c1 (stereo not drawn) [Example 367, Thiourea, N-[3-[cyclopropyl(5,6,7,8,9,10-hexahydro-4-hydroxy-2-oxo-2H-cycloocta[b]pyran-3-yl)methyl]phenyl]-N'-ethyl-] |  |  |  | 58.5% | 86.1% | 102% | inhibition at 1.1 µM [5]: 23.7% |
| CCS(=O)(=O)Nc1cccc(C(c2c(O)c3c(oc2=O)CCCCC3)C2CC2)c1 (stereo not drawn) [Example 365, N-[3-[Cyclopropyl(2,5,6,7,8,9-hexahydro-4-hydroxy-2-oxocyclohepta[b]pyran-3-yl)methyl]phenyl]-ethanesulfonamide] |  | 94.5% |  |  |  |  | inhibition at 0.123 µM: 11.7%; inhibition at 0.37 µM: 31.1%; inhibition at 1.1 µM [2]: 65.3%; inhibition at 3.3 µM [3]: 84.1%; inhibition at 30 µM [4]: 95.8% |
| CC(C)(O)C1CCCCCc2c1oc(=O)c(C(c1ccccc1)C1CC1)c2O (stereo not drawn) [Example 175, 3-(Cyclopropylphenylmethyl)-5,6,7,8,9,10-hexahydro-4-hydroxy-10-(1-hydroxy-1-methylethyl)-2H-cycloocta[b]pyran-2-one] |  |  |  | 55.5% | 88.5% | 105% | inhibition at 1.1 µM [5]: 19.4% |
| CC(C)(C)OC(=O)NCC(=O)N(Cc1ccccc1)c1cccc(C(c2c(O)c3c(oc2=O)CCCCCC3)C2CC2)c1 (stereo not drawn) [Example 216, Carbamic acid, [2-[[3-[cyclopropyl(5,6,7,8,9,10-hexahydro4-hydroxy-2-oxo-2H-cycloocta[b]pyran-3-yl)methyl]phenyl](phenylmethyl)amino]-2-oxyethyl]-, 1,1-dimethylethyl ester] |  |  |  |  | 10.9% | 31.4% |  |
| CCC(c1cccc(NC(=O)CCc2cccc3ccccc23)c1)c1c(O)c2ccccc2oc1=O (stereo not drawn) [Example 64, Coumarin, 4-hydroxy-3-[1-[3-[[3-(1-naphthyl)-1-oxopropyl]amino]phenyl]propyl]-] | 29.1% | 78.1% | 104% |  |  |  | IC50: 5.8 µM |
| CCC(c1cccc(NC(=O)CC(C)(C)NC(=O)OC(C)(C)C)c1)c1c(O)c2ccccc2oc1=O (stereo not drawn) [Example 47, Coumarin, 4-hydroxy-3-[1-[3-[[1-oxo-3-methyl-3-[(1,1-dimethylethoxycarbonyl)amino]butyl]amino]phenyl]propyl]-] | < 10% | < 10% | 53% |  |  |  |  |
| CCC(c1cccc(NC(=O)COc2cccc3ccccc23)c1)c1c(O)c2ccccc2oc1=O (stereo not drawn) [Example 41, Coumarin, 4-hydroxy-3-[1-[3-[[(1-naphthoxymethyl)carbonyl]amino]phenyl]propyl]-] | < 10% | 32.6% | 80.6% |  |  |  |  |
| CCC(c1ccccc1)c1c(O)c2c(oc1=O)CCCCC2 (stereo not drawn) [Example 110, 6,7,8,9-Tetrahydro-4-hydroxy-3-(1-phenylpropyl)-cyclohepta[b]pyran-2(5H)-one] | 16.9% | 73.8% | 99.9% |  |  |  |  |
| CCC(CC(=O)Nc1cccc(C(CC)c2c(O)c3ccccc3oc2=O)c1)c1ccccc1 (stereo not drawn) [Example 49, Coumarin, 4-hydroxy-3-[1-[3-[(1-oxo-3-phenylpentyl)amino]phenyl]propyl]-] | < 10% | 21.9% | 60.3% |  |  |  |  |
| CCC(c1ccccc1)c1c(O)c2ccc(C(F)(F)F)cc2oc1=O (stereo not drawn) [Example 86, Coumarin, 7-trifluoromethyl-4-hydroxy-3-(1-phenylpropyl)-] | 10.5% | 56.9% | 95.8% |  |  |  |  |
| CC(=O)Nc1nc(C)c(S(=O)(=O)Nc2cccc(C(c3c(O)c4c(oc3=O)CCCCCC4)C3CC3)c2)s1 (stereo not drawn) [Example 322, N-[5-[[[3-[Cyclopropyl(5,6,7,8,9,10-hexahydro-4-hydroxy-2-oxo-2H-cycloocta[b]pyran-3-yl)methyl]phenyl]amino]sulfonyl]-4-methyl-2-thiazolyl]-acetamide] |  |  |  | 61.1% | 91.8% | 106% | inhibition at 1.1 µM [5]: 22.3% |
| CCCCOc1ccc(S(=O)(=O)Nc2cccc(C(c3c(O)c4c(oc3=O)CCCCCC4)C3CC3)c2)cc1 (stereo not drawn) [Example 282, 4-Butoxy-N-[3-[cyclopropyl(5,6,7,8,9,10-hexahydro-4-hydroxy-2-oxo-2H-cycloocta[b]pyran-3-yl)methyl]phenyl]-benzenesulfonamide] |  |  |  | 43.2% | 65.3% | 96.3% | inhibition at 1.1 µM [5]: 10.6% |
| CC(O)CC1CCCCc2c1oc(=O)c(C(c1ccccc1)C1CC1)c2O (stereo not drawn) [Example 192, 3-(Cyclopropylphenylmethyl)-6,7,8,9-tetrahydro-4-hydroxy-9-(2-hydroxypropyl)-cyclohepta[b]pyran-2(5H)-one] |  |  |  | 68.8% | 102% | 102% | inhibition at 1.1 µM [5]: 24.9% |
| CC(C)C(c1cccc(NS(=O)(=O)c2ccc(C#N)cc2)c1)c1c(O)c2c(oc1=O)CCCCCC2 (stereo not drawn) [Example 372, 4-Cyano-N-[3-[1-(6,7,8,9,10-hexahydro-4-hydroxy-2-oxo-2H-cycloocta[b]pyran-3-yl)-2-methylpropyl]phenyl]-benzenesulfonamide] |  | 109% |  |  |  |  | inhibition at 0.123 µM: 65.3%; inhibition at 0.37 µM: 91.3%; inhibition at 1.1 µM [2]: 105%; inhibition at 3.3 µM [3]: 108%; inhibition at 30 µM [4]: 106% |
| COCCOCCOCCC1CCCCc2c1oc(=O)c(C(c1ccccc1)C1CC1)c2O (stereo not drawn) [Example 181, 3-(Cyclopropylphenylmethyl)-6,7,8,9-tetrahydro-4-hydroxy-9-[2-[2-(2-methoxyethoxy)ethoxy]ethyl]-cyclohepta[b]pyran-2(5H)-one] |  |  |  | 35.1% | 66.6% | 79.3% | inhibition at 1.1 µM [5]: 10.4% |
| O=c1oc2c(c(O)c1C(Cc1ccccc1)Cc1ccccc1)CCCCC2 [Example 482, 3-(1,3-Diphenyl-2-propyl)-5,6,7,8,9-pentahydro-4-hydroxy-2H-cyclohepta[b]pyran-2-one] |  |  |  | 20% | 63.2% | 92.6% |  |
| O=c1oc2ccccc2c(O)c1CCCc1ccccc1 [Example 2, 4-Hydroxy-3-(3-phenylpropyl)coumarin] |  | 15.6% | 63.6% |  |  |  | inhibition at 20 µM (read-out: HIV-1 Protease % Inhib, dose 20.000 uM): 48.1%; inhibition at 200 µM (read-out: HIV-1 Protease % Inhib, dose 200.000 uM): 97.5% |
| Cn1cnc(S(=O)(=O)Nc2cccc([C@@H](c3c(O)c4c(oc3=O)CCCCCC4)C3CC3)c2)c1 [Example 297, N-[3-[Cyclopropyl(5,6,7,8,9,10-hexahydro-4-hydroxy-2-oxo-2H-cycloocta-3-yl)methyl]phenyl]-1-methyl-(S)-1H-imidazole-4-sulfonamide] |  | 102% |  |  |  |  | inhibition at 0.123 µM: 72%; inhibition at 0.37 µM: 86%; inhibition at 1.1 µM [2]: 101%; inhibition at 3.3 µM [3]: 99.8%; inhibition at 30 µM [4]: 99.5% |
| N#Cc1ccc(S(=O)(=O)NCc2ccc(C(c3c(O)c4c(oc3=O)CCCCCC4)C3CC3)s2)cc1 (stereo not drawn) [Example 392] |  |  |  | 47% | 77.6% | 99.7% | inhibition at 1.1 µM [5]: 11.5% |
| O=c1oc2ccccc2c(O)c1C(c1ccccc1)c1ccccc1 [Example 7, 4-Hydroxy-3-diphenylmethylcoumarin] | < 10% | 42.5% | 96.3% |  |  |  | IC50: 21.2 µM |
| CC(C)C(c1cccc(NS(=O)(=O)c2ccc(F)cc2)c1)c1c(O)c2c(oc1=O)CCCCCC2 (stereo not drawn) [Example 418, Benzenesulfonamide, N-[3-[1-(5,6,7,8,9,10-hexahydro-4-hydroxy-2-oxo-2H-cycloocta[b]pyran-3-yl)-2-methylpropyl]phenyl]4-fluoro-] |  | 119% |  |  |  |  | inhibition at 0.123 µM: 81.8%; inhibition at 0.37 µM: 87.5%; inhibition at 1.1 µM [2]: 98.6%; inhibition at 3.3 µM [3]: 110%; inhibition at 30 µM [4]: 123% |
| CCC(c1ccccc1)c1c(O)c2cc(O)ccc2oc1=O (stereo not drawn) [Example 95, Coumarin, 4,6-dihydroxy-3-(1-phenylpropyl)-] | < 10% | 34.7% | 79.6% |  |  |  |  |
